Data taken from US20240208998A1, “COMPOUNDS FOR USE IN THE TREATMENT OF HYPERPROLIFERATIVE DISORDERS” (FUNDACIÓ PRIVADA INSTITUT D'INVESTIGACIÓ ONCOLÓGICA DE VALL …, priority 2021, published 2024).

Experiments:
human TET2 construct = human TET2 construct (Homo sapiens, UniProt Q6N021, A1837G/A1840G/D1704G/D1842G/DEL1471-1702/DEL1708-1833/E1841G/F1706G/N1843S/Q1834G/V1836G); experiment: Determination of TET2 binding by Surface Plasmon Resonance; details: SPR, Biacore T200, 25° C., steady state fit to single site interaction model
Experimental: The human methylcytosine dioxygenase TET2 construct used (1129-2002 with residues 1471-1843 replaced by a 15-residue GS-linker) was expressed in a pET-28a(+)psumo vector with kanamycin resistance and an N-terminal His6 tag, and cloned in Rosetta D3 Escherichia coli competent cells. Transformed cells were cultured overnight in 10 mL of LB media supplied with kanamycin (50 μg/mL), then scaled to 1 L LB medium supplied with kanamycin (50 μg/mL) and grown at 37° C. Once the optical density (OD600) achieved 0.8, protein expression was induced with 0.4 mM isopropyl-β-thiogalactopyranoside (IPTG) overnight at 18° C. Cells were harvested by centrifugation (8,000 rpm, 4° C., 30 min) and the pellet obtained was resuspended in 15 mL of buffer A (50 mM Hepes, 150 mM NaCl, 30 mM imidazole, 2 mM β-mercaptoethanol (pH 8.0) supplemented with Pierce protease inhibitor cocktail (ThermoFisher Scientific)) and lysed by sonication (1 min 40 s: 10 cycles×10 s ON, 30 s OFF, A=35%, T=19° C.) followed by two consecutive centrifugations (8,000 rpm, 4° C., 30 min) to clarify the lysate.
The TET2 protein was purified using an AKTA Start system (GE Healthcare, Uppsala, Sweden) by two-step purification procedure: one His-affinity chromatography followed by a size exclusion chromatography. First, the protein fraction obtained during the lysis (supernatant) was applied to a 5 mL HisTrap HP column (GE Healthcare), washed with buffer A (50 mM Hepes, 150 mM NaCl, 30 mM imidazole, 2 mM […] (pH 8.0)) and the bound protein was eluted with buffer B (50 mM Hepes, 150 mM NaCl, 250 mM imidazole, 2 mM β-mercaptoethanol (pH 8.0)). The eluted protein-containing fractions were pooled and concentrated up to 4 mL for the last purification step: a size exclusion chromatography (HiPrep 16/60 Sephacryl S-100 HR) in 50 mM Hepes, 150 mM NaCl, 2 mM β-mercaptoethanol (pH 8.0). Finally, the mass and purity of the protein were verified by SDS-electrophoresis and mass spectrometry.
The binding of compounds of the examples was determined by Surface Plasmon Resonance (SPR) using a Biacore T200 SPR biosensor instrument (GE Healthcare, Uppsala, Sweden) at 25° C. The human TET2 construct was immobilized on a CM5 sensor chip using a standard covalent immobilization via amine coupling following the activation of the carboxymethyl dextran matrix of the sensor chip (injection of a solution containing 0.1 M N-hydroxysuccinimide and 0.4 M 1-ethyl-3-[3-(dimethylamino)propyl]carbodiimide hydrochloride at a flow rate of 15 μL/min for 7 min). The protein immobilization was achieved after the injection of 5 μg/mL TET2 in 10 mM sodium acetate (pH 4.0) at a flow rate of 5 μL/min. Unreacted activated groups of the dextran matrix were deactivated by injection of 1 M ethanolamine hydrochloride for 7 min at a flow rate of 15 μL/min. The corresponding matrix activation and protein immobilization were performed using as a running buffer a phosphate buffered saline solution (1.05× PBS: 10 mM phosphate, pH 7.4, 150 mM NaCl). The screened compounds were prepared in a 20 mM stock solution in DMSO and diluted with 1.05× PBS to achieve a final 5% (v/v) DMSO concentration. The running buffer of the interaction assays consisted of 1×PBS, 5% (v/v) DMSO. The flow rate used for the screening was 60 μL/min and the ligand association and dissociation times set were 60 s and 120 s, respectively.
For data analysis the software used was the Biacore T200 Evaluation software. Different corrections were applied. First, the nonspecific binding to the chip surface and the baseline drift were corrected subtracting the signals of a reference surface (where the immobilization procedure was carried out without proteins) to the signals obtained on the TET2 surface. Second, a series of solvent standards (solvent correction) were introduced to remove the differences derived from the DMSO. Finally, the background was corrected subtracting blank injections (blank subtraction) to the injected compound signals.

Hop62 (lung) = experiment: Antiproliferative activity on other tumour cell lines (CellTiter-Glo): Hop62; type: cell-based; details: Homo sapiens, HOP-62; Hop62, 72 h of treatment
Experimental: (§1) Other human adherent cancer cell lines were cultured in their corresponding cell medium (as specified in Table 4) supplemented with 10% FBS (v/v) and 1% P/S (v/v). Twenty-four hours prior to treatment with the compounds to be tested (Examples 1, 12 and 21), the cells were seeded in 96-well plates at different densities depending of the cell line (as specified in Table 4).
(§2) Depending on the cell line, a 50, 125 or 250 μM solution of the compounds of examples 1, 12 and 21 were prepared in complete medium, and then serially diluted (1:2) (Table 5). A solution of complete medium with DMSO was used as a vehicle control.
(§3) Fifty microliters of each serially diluted compound solution was added by medium replacement in two wells (by duplicate). After 48 h of treatment, 50 μL of fresh 2X serially diluted compound solution was added to the corresponding wells of the plate (100 μL of final volume/well). After twenty-four additional hours (a total of 72 h of treatment), an equal volume (100 μL) of CellTiter-Glo Reagent (Promega) was added to each well, plates were shaken during 2 min and incubated at rt for 10 min. Luminescence was recorded using a Spark multimode microplate reader and an integration time of 1 s per well.

T98G (glioblastoma) = experiment: Antiproliferative activity on other tumour cell lines (CellTiter-Glo): T98G; type: cell-based; details: Homo sapiens, 72 h of treatment
Experimental: as §1, §2, §3

LN229 (glioblastoma) = experiment: Antiproliferative activity on other tumour cell lines (CellTiter-Glo): LN229; type: cell-based; details: Homo sapiens, LN-229; LN229, 72 h of treatment
Experimental: as §1, §2, §3

HCT116 (colon) = experiment: Antiproliferative activity on other tumour cell lines (CellTiter-Glo): HCT116; type: cell-based; details: Homo sapiens; HCT 116, 72 h of treatment
Experimental: as §1, §2, §3

MCF7 (breast) = experiment: Antiproliferative activity on other tumour cell lines (CellTiter-Glo): MCF7; type: cell-based; details: Homo sapiens; MCF7, 72 h of treatment
Experimental: as §1, §2, §3

A375 (melanoma) = experiment: Antiproliferative activity on other tumour cell lines (CellTiter-Glo): A375; type: cell-based; details: Homo sapiens, A-375; A375, 72 h of treatment
Experimental: as §1, §2, §3

MDA-MB-468 (breast) = experiment: Antiproliferative activity on other tumour cell lines (CellTiter-Glo): MDA-MB-468; type: cell-based; details: Homo sapiens, MD-MB-468, 72 h of treatment
Experimental: as §1, §2, §3

Row | SMILES | Kd (human TET2 construct) [µM] | EC50 (Hop62 (lung)) [µM] | EC50 (T98G (glioblastoma)) [µM] | EC50 (LN229 (glioblastoma)) [µM] | EC50 (HCT116 (colon)) [µM] | EC50 (MCF7 (breast)) [µM] | EC50 (A375 (melanoma)) [µM] | EC50 (MDA-MB-468 (breast)) [µM]
1 | Cc1[nH]c2ccccc2c1-c1csc(NC(=O)Cc2cc(Br)cs2)n1 [Example 19, 2-(4-bromothiophen-2-yl)-N-[4-(2-methyl-1H-indol-3-yl)thiazol-2-yl]acetamide] | 1 |  |  |  |  |  |  | 
2 | Cc1[nH]c2ccccc2c1-c1csc(NC(=O)Cc2c[nH]c3ccccc23)n1 [Example 13, 2-(1H-indol-3-yl)-N-[4-(2-methyl-1H-indol-3-yl)thiazol-2-yl]acetamide] | 14 |  |  |  |  |  |  | 
3 | Cc1[nH]c2ccccc2c1-c1csc(NC(=O)Cc2c[nH]c3ccc(O)cc23)n1 [Example 21, 2-(5-hydroxy-1H-indol-3-yl)-N-[4-(2-methyl-1H-indol-3-yl)thiazol-2-yl]acetamide] | 7 | 81.6 | 11.4 | 3.3 | 16.4 | 12.9 | 1.1 | 9.2
4 | Cc1[nH]c2ccccc2c1-c1nc(NC(=O)Cc2cn3ccsc3n2)sc1C [Example 4, 2-(imidazo[2,1-b]thiazol-6-yl)-N-[5-methyl-4-(2-methyl-1H-indol-3-yl)thiazol-2-yl]acetamide] | 12 |  |  |  |  |  |  | 
5 | Cc1[nH]c2ccccc2c1-c1csc(NC(=O)Cc2c[nH]c3ccc(F)cc23)n1 [Example 12, 2-(5-fluoro-1H-indol-3-yl)-N-[4-(2-methyl-1H-indol-3-yl)thiazol-2-yl]acetamide] | 6 | 12.1 | 23.1 | 5.9 | 6.8 | 10.3 | 2.7 | 10.1
